Assay results: US9334263B2, “Compositions useful for treating disorders related to kit” (BLUEPRINT MEDICINES CORPORATION, priority 2013, dated 2016)
Entries after “also recorded” stand apart in the source; their conditions may differ.

Key:
D816V Kit = biological target: T1, D816V Kit (Homo sapiens, UniProt P10721, D816V); experiment: Kit D816V assay at Km (Caliper electrophoretic mobility shift); assay type: biochemical; details: 15 uM ATP, 25 C, 90 minutes
T1 construct: purchased Carna Bioscience 08-156
T1 sequence (P10721 26-976 D816V): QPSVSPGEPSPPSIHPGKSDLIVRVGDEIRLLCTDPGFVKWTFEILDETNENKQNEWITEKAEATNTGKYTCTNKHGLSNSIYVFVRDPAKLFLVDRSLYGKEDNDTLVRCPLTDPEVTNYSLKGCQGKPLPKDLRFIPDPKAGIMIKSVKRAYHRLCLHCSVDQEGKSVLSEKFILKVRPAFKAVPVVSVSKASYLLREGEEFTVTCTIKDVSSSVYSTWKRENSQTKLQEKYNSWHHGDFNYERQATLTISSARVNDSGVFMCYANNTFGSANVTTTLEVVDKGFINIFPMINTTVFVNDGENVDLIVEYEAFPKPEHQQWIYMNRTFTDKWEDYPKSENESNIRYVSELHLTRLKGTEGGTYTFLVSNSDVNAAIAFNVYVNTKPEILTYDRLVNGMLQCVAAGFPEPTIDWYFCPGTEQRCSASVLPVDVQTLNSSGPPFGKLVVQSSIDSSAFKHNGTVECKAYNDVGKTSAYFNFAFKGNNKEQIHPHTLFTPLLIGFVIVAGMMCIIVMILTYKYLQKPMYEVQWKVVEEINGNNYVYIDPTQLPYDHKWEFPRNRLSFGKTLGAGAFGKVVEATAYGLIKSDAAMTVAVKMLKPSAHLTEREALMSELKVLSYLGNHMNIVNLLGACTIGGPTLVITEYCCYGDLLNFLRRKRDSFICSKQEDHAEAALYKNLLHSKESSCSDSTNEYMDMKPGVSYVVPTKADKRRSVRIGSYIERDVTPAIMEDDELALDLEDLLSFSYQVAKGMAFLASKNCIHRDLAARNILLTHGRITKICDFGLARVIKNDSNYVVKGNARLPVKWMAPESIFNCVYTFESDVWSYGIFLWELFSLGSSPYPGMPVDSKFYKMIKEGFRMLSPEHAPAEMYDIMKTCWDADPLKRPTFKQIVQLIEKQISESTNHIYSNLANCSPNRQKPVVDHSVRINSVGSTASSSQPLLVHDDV
Method in brief: (§1)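 Read-out is the ratio of phosphorylated to unphosphorylated fluorescent peptide, resolved by mobility shift on a Caliper EZ Reader 2.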

wild type Kit = biological target: T2, wild type Kit (Homo sapiens, UniProt P10721); experiment: Kit wild type assay at Km (Caliper electrophoretic mobility shift); assay type: biochemical; details: 400 uM ATP, 25 C, 90 minutes; read-out: WT KIT
T2 construct: purchased Carna Bioscience 08-156
T2 sequence (P10721 26-976): as the sequence (P10721 26-976 D816V) above, with V791D counted along it
Method in brief: as §1

PDGFRA D842V = biological target: T3, PDGFRA D842V (Homo sapiens, UniProt P16234, D842V); experiment: PDGFRA D842V assay at Km (Caliper electrophoretic mobility shift); assay type: biochemical; details: 15 uM ATP, 25 C, 90 minutes; read-out: PDFGRA D842V
T3 construct: purchased ProQinase 0761-0000-1
T3 sequence (P16234 24-1089 D842V): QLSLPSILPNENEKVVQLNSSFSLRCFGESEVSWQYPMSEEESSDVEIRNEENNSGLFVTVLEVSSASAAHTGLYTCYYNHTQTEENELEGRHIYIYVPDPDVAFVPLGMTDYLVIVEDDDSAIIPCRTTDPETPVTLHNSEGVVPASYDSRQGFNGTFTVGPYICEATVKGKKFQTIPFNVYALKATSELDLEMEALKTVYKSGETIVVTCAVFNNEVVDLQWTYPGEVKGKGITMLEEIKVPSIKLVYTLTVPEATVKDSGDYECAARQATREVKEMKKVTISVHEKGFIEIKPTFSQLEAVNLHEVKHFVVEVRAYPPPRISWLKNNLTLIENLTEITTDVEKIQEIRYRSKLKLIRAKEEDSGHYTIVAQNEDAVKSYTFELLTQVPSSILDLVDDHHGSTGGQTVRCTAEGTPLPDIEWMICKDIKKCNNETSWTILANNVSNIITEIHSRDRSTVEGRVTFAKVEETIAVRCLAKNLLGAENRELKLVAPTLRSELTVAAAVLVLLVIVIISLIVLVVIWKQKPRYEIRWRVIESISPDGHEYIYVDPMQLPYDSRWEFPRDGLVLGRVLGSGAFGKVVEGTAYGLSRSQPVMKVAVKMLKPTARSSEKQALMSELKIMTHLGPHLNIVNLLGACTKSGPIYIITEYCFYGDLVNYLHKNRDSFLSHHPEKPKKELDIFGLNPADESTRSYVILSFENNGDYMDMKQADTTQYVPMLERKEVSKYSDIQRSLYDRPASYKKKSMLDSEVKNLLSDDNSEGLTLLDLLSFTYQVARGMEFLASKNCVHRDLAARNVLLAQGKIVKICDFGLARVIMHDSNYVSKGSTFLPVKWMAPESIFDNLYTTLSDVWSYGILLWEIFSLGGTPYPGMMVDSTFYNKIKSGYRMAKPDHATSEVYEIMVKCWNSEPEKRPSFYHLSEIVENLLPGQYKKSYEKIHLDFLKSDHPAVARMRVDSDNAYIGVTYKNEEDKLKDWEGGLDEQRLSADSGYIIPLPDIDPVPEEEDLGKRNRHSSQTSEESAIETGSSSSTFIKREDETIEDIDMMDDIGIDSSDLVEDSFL
Experimental: In order to assess the activity of chemical compounds against the relevant kinase of interest, the Caliper LifeSciences electrophoretic mobility shift technology platform is used. Fluorescently labeled substrate peptide is incubated in the presence of kinase and ATP so that a […] proportion of the peptide is phosphorylated. At the end of the reaction, the mix of phosphorylated (product) and non-phosphorylated (substrate) peptides are passed through the microfluidic system of the Caliper EZ Reader 2, under an applied potential difference. The presence of the phosphate group on the product peptide provides a difference in mass and charge between those of the substrate peptide, resulting in a separation of the substrate and product pools in the sample. As the pools pass a LEDS within the instrument, these pools are detected and resolved as separate peaks. The ratio between these peaks therefore reflects the activity of the chemical matter at that concentration in that well, under those conditions.
The reaction was stopped by the addition of 70 ul of Stop buffer (100 mM HEPES pH 7.5, 0.015% Brij 35, 35 mM EDTA and 0.2% of Coating Reagent 3 (Caliper Lifesciences)). The plate was then read on a Caliper EZReader 2 (protocol settings: −1.9 psi, upstream voltage −500, downstream voltage −3000, post sample sip 38 s).

[1] = biological target: T4, Kit D816V (HMC1.2 cells, Kit V560G and D816V) (Homo sapiens, UniProt P10721, D816V/V560G); experiment: HMC1.2 autophosphorylation assay (AlphaLISA, phospho-Y719 c-Kit); assay type: cell-based; details: Kit autophosphorylation at tyrosine 719, 90 minutes, read-out: Cellular Activity
T4 construct: endogenous in cells; host or cells: HMC1.2 cells
T4 sequence (P10721 26-976 V560G/D816V): as the sequence (P10721 26-976 D816V) above, with V535G counted along it
Method in brief: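 AlphaScreen signal comes from lysed HMC1.2 cells incubated with phospho-Y719 and total c-Kit antibodies (15 nM final), acceptor beads and then streptavidin donor beads, 2 h each at room temperature. Beforehand, cells deprived of serum overnight received compound for 90 min as a 10-point series, 25 uM–95.4 pM, 0.25% DMSO.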

P815 tumor cells = experiment: P815 mastocytoma xenograft model; assay type: in vivo, mouse; details: female BALB/c nude mice, P815 s.c., p.o. BID x 10
Experimental: Compound 165 and Dasatinib were evaluated in a P815 mastocytoma xenograft model. P815 tumor cells (ATCC, Manassas, Va., cat # ATCC® TIB-64) were maintained in vitro as a suspension and monolayer culture in RPMI1640 medium supplemented with 10% fetal calf serum at 37° C. in an atmosphere of 5% CO2 in air. The tumor cells were sub-cultured twice weekly by trypsin-EDTA treatment. The cells growing in an exponential growth phase were harvested and counted for tumor inoculation.
Tumor sizes were measured every other day in two dimensions using a caliper, and the volume was expressed in mm^3 using the formula: V=0.5 a×b^2 where a and b were the long and short diameters of the tumor, respectively. […] T-C was calculated with T as the median time (in days) required for the treatment group tumors to reach a predetermined size (e.g., 1000 mm^3), and C as the median time (in days) for the control group tumors to reach the same size. […]
TGI was calculated for each group using the formula: TGI (%)=[1−(Ti−T0)/(Vi−V0)]×100; Ti is the average tumor volume of a treatment group on a given day, T0 is the average tumor volume of the treatment group on the day of treatment start, Vi is the average tumor volume of the vehicle control group on the same day with Ti, and V0 is the average tumor volume of the vehicle group on the day of treatment start. Tumor weight was measured at the endpoint. […]

Molecule `O[C@@H]1CCCN(c2ccc(Nc3ncnc(N4CCN(c5ncc(Cc6ccccc6)cn5)CC4)n3)cc2)C1` [Compound 165] has an IC50 (D816V Kit) of 1.01 to 10 nM, an IC50 (wild type Kit) of 100 to 1000 nM and an IC50 (PDGFRA D842V) of 1.01 to 10 nM. For the same molecule, the IC50 [1] was 10 to 100 nM and the “tumor growth inhibition / antitumor activity” value (P815 tumor cells) was “effective in inhibiting tumor growth; also recorded: observable antitumor activity”.

With `CNCCn1cc(Nc2ncnc(N3CCN(c4ncc(Cc5ccccc5)cn4)CC3)n2)cn1` [Compound 30] the IC50 (D816V Kit) was less than 1 nM, the IC50 (wild type Kit) was 11 to 100 nM and the IC50 (PDGFRA D842V) was less than 1 nM. It also gave an IC50 [1] of 10 to 100 nM.

Work on `c1ccc(Cc2cnc(N3CCN(c4ncnc(Nc5ccc(N6CCNCC6)cc5)n4)CC3)nc2)cc1` [Compound 102] yielded an IC50 (D816V Kit) of less than 1 nM, an IC50 (wild type Kit) of less than 10 nM and an IC50 (PDGFRA D842V) of less than 1 nM. The IC50 [1] was 10 to 100 nM.

`c1ccc(Cc2cnc(N3CCN(c4ncnc(Nc5cnn([C@@H]6CCNC6)c5)n4)CC3)nc2)cc1` (single isomer, unassigned) [Compound 53] showed an IC50 (D816V Kit) of less than 1 nM, an IC50 (wild type Kit) of less than 10 nM and an IC50 (PDGFRA D842V) of less than 1 nM. For the same molecule, the IC50 [1] was 10 to 100 nM.

In the case of `OCc1cccc(Nc2ncnc(N3CCN(c4ncc(Cc5ccccc5)cn4)CC3)n2)c1` [Compound 15], the IC50 (D816V Kit) is reported as less than 1 nM, the IC50 (wild type Kit) is reported as 11 to 100 nM and the IC50 (PDGFRA D842V) is reported as less than 1 nM. It also gave an IC50 [1] of 10 to 100 nM.

Molecule `Nc1cccc(Nc2ncnc(N3CCN(c4ncc(Cc5ccccc5)cn4)CC3)n2)c1` [Compound 12] has an IC50 (D816V Kit) of less than 1 nM, an IC50 (wild type Kit) of less than 10 nM and an IC50 (PDGFRA D842V) of less than 1 nM. The IC50 [1] was less than 10 nM.

Molecule `Oc1nc(N2CCN(c3ncnc(Nc4cnn(CC5CCNCC5)c4)n3)CC2)ncc1Cc1ccccc1` [Compound 179] has an IC50 (D816V Kit) of less than 1 nM, an IC50 (wild type Kit) of less than 10 nM and an IC50 (PDGFRA D842V) of less than 1 nM. It also gave an IC50 [1] of 1000 to 10000 nM.

`c1ccc(Cc2cnc(N3CCN(c4ncnc(Nc5ccc6c(c5)CNCC6)n4)CC3)nc2)nc1` [Compound 44] was tested, and the IC50 (D816V Kit) was 1.01 to 10 nM, the IC50 (wild type Kit) was 11 to 100 nM and the IC50 (PDGFRA D842V) was 1.01 to 10 nM. The IC50 [1] was 10 to 100 nM.

Molecule `CCNc1cccc(Nc2ncnc(N3CCN(c4ncc(Cc5ccccc5)cn4)CC3)n2)c1` [Compound 25] has an IC50 (D816V Kit) of less than 1 nM, an IC50 (wild type Kit) of 11 to 100 nM and an IC50 (PDGFRA D842V) of less than 1 nM. It also gave an IC50 [1] of 10 to 100 nM.

For `c1ccc(Oc2cnc(N3CCN(c4ncnc(Nc5ccc6c(c5)CNCC6)n4)CC3)nc2)cc1` [Compound 46], the IC50 (D816V Kit) was less than 1 nM, the IC50 (wild type Kit) was less than 10 nM and the IC50 (PDGFRA D842V) was 1.01 to 10 nM. For the same molecule, the IC50 [1] was 10 to 100 nM.

With `Nc1nc(N2CCN(c3ncnc(Nc4ccc5c(c4)CNCC5)n3)CC2)ncc1Cc1ccccc1` [Compound 73] the IC50 (D816V Kit) was less than 1 nM, the IC50 (wild type Kit) was less than 10 nM and the IC50 (PDGFRA D842V) was less than 1 nM. It also gave an IC50 [1] of less than 10 nM.

`c1ccc(Cc2cnc(N3CCN(c4ncnc(Nc5cnn([C@H]6CCNC6)c5)n4)CC3)nc2)cc1` [Compound 52] showed an IC50 (D816V Kit) of less than 1 nM, an IC50 (wild type Kit) of less than 10 nM and an IC50 (PDGFRA D842V) of less than 1 nM. The IC50 [1] was 10 to 100 nM.

`Cn1cc(Nc2ncnc(N3CCN(c4ncc(Cc5ccccc5)cn4)CC3)n2)cn1` [Compound 10] gave an IC50 (D816V Kit) of less than 1 nM, an IC50 (wild type Kit) of 11 to 100 nM and an IC50 (PDGFRA D842V) of 1.01 to 10 nM. The IC50 [1] was 100 to 1000 nM.

`CNCCCn1cc(Nc2ncnc(N3CCN(c4ncc(Cc5ccccc5)cn4)CC3)n2)cn1` [Compound 61] gave an IC50 (D816V Kit) of less than 1 nM, an IC50 (wild type Kit) of less than 10 nM and an IC50 (PDGFRA D842V) of less than 1 nM. It also gave an IC50 [1] of 10 to 100 nM.

For `Oc1nc(N2CCN(c3ncnc(Nc4ccc5c(c4)CNCC5)n3)CC2)ncc1Cc1ccccc1` [Compound 75], the IC50 (D816V Kit) was less than 1 nM, the IC50 (wild type Kit) was less than 10 nM and the IC50 (PDGFRA D842V) was less than 1 nM. For the same molecule, the IC50 [1] was 10 to 100 nM.

With `c1ccc(Cc2cnc(N3CCN(c4ncnc(Nc5cnn(CC6CCNC6)c5)n4)CC3)nc2)cc1` (stereo not drawn) [Compound 83] the IC50 (D816V Kit) was less than 1 nM, the IC50 (wild type Kit) was less than 10 nM and the IC50 (PDGFRA D842V) was less than 1 nM. For the same molecule, the IC50 [1] was 10 to 100 nM.

`CC(=O)Nc1cccc(Nc2ncnc(N3CCN(c4ncc(Cc5ccccc5)cn4)CC3)n2)c1` [Compound 47] was tested, and the IC50 (D816V Kit) was less than 1 nM, the IC50 (wild type Kit) was 11 to 100 nM and the IC50 (PDGFRA D842V) was less than 1 nM. The IC50 [1] was 10 to 100 nM.

Work on `OC1CCC(NCc2cccc(Nc3ncnc(N4CCN(c5ncc(Cc6ccccc6)cn5)CC4)n3)c2)C1` (stereo not drawn) [Compound 214] yielded an IC50 (D816V Kit) of less than 1 nM, an IC50 (wild type Kit) of 11 to 100 nM and an IC50 (PDGFRA D842V) of less than 1 nM. For the same molecule, the IC50 [1] was 10 to 100 nM.

`CN(C)[C@@H]1CCN(Cc2cccc(Nc3ncnc(N4CCN(c5ncc(Cc6ccccc6)cn5)CC4)n3)c2)C1` [Compound 261] showed an IC50 (D816V Kit) of less than 1 nM, an IC50 (wild type Kit) of less than 10 nM and an IC50 (PDGFRA D842V) of less than 1 nM. For the same molecule, the IC50 [1] was 10 to 100 nM.

With `O[C@H]1CCCN(c2ccc(Nc3ncnc(N4CCN(c5ncc(Cc6ccccc6)cn5)CC4)n3)cc2)C1` [Compound 166] the IC50 (D816V Kit) was less than 1 nM, the IC50 (wild type Kit) was 11 to 100 nM and the IC50 (PDGFRA D842V) was 1.01 to 10 nM. For the same molecule, the IC50 [1] was less than 10 nM.
